Source: article PMC3640069 (PLoS ONE, 2013)
Like-named read-outs stand apart in the source and are kept apart here. Marks after values point to notes of the source that are not given here.

Assays:
SHR = test system: SHR; set-up: method as in 5 sources, ref 30 = [30]; PMID 7673515; doi:10.3168/jds.S0022-0302(95)76745-5; 30 Nakamura Y , Yamamoto N , Sakai K , Takano T ( 1995 ) Antihypertensive effect of sour milk and peptides isolated from it that are inhibitors to angiotensin I-converting enzyme . J Dairy Sci 78 : 12 ||| ref 31 = [31]; PMID 8880454; doi:10.3168/jds.S0022-0302(96)76487-1; 31 Maeno M , Yamamoto N , Takano T ( 1996 ) Identification of an antihypertensive peptide from casein hydrolysate produced by a proteinase from Lactobacillus helveticus CP790 . J Dairy Sci 79 : 1316 – ||| ref 32 = [32]; PMID 9891260; doi:10.3168/jds.S0022-0302(98)75878-3; 32 Abubakar A , Saito T , Kittazawa H , Kawai Y , Itoh T ( 1998 ) Structural analysis of new antihypertensive peptides derived from cheese whey protein by proteinase K digestion . J Dairy Sci 81 : 313 ||| ref 33 = [33]; PMID 10794501; doi:10.1016/s0024-3205(00)00471-9; 33 Nurminen ML , Sipola M , Kaarto H , Pihlanto-Leppälä A , Piilola K , et al ( 2000 ) α-Lactorphin lowers blood pressure measured by radiotelemetry in normotensive and spontaneously hypertensive rats ||| ref 34 = [34]; 34 Miguel M , Contreras MM , Recio I , Aleixandre A ( 2009 ) ACE-inhibitory and antihypertensive properties of a bovine casein hydrolysate . Food Chemistry 112 : 211 – 214 .; details: cited from earlier work
[1] = normoglycemic and normotensive animal model; cited from earlier work
Source text: It is necessary to evaluate the ACE-inhibitor effect on the blood glucose level of hyperpietics simultaneously since blood sugar was positively correlated with blood pressure (systolic and diastolic), and this correlation was independent of common associations with age, body mass index (BMI) and heart rate.

ACE from rabbit lungs = test: ACE inhibitory activity in vitro (HHL hydrolysis, HPLC of hippuric acid); assay type: biochemical; details: 10 µmol/L peptide, crude ACE extract from rabbit lung, 5 mmol/L HHL, 37°C, 10 min pre-incubation + 20 min, RP-HPLC 228 nm, mean ± SD
Procedure: ACE extracts were prepared and its activity was determined according to the method of Nakamura et al. and Wu & Ding with some modifications. Briefly, the fresh rabbit lung without connective tissues was cut into pieces and washed with precooled NaCl (0.7%) to get rid of blood. The tissue pieces were homogenized in precooled 5-fold the volume of fresh rabbit lung weight (v/w, mL/g) of 100 mM sodium borate buffer (BBS) (pH 8.3). The mixtures were then filtrated with 3-ply gauze followed by ultracentrifuged for 40 min (40,000 g, at 4°C). The supernatant as crude ACE extracts was retained and stored at 5°C [24].
The ACE activity was assayed using the method described by Wu & Ding. It was based on the hydrolysis of hippuryl-L-histidyl-L-leucine (HHL) by ACE to hippuric acid (HA) and histidyl-leucine (HL) as products. The HA release from HHL was directly related to the ACE activity. One unit (U) of ACE was defined as the amount of enzyme catalyzing the release of 1 µmol/L HA from the substrate HHL per minute at 37°C. Briefly, 30 µL of ACE crude extracts were mixed with 100 µL of BBS (pH 8.3). The mixture was incubated at 37°C for 10 min. Then, 200 µL of 5 mmol/L HHL solution substrate were added and the reaction mixture was incubated at 37°C for 20 min. The reaction was stopped by the addition of 250 µL of 1 mol/L HCl. 10 µL of solution were analyzed by reversed-phase HPLC and detected at the wavelength of λ = 228 nm. The column was eluted with 20% acetonitrile (in water, v/v) containing 0.1% (v/v) TFA on AKATA purifier 10 with a flow rate of 1.0 mL/min. The blank experiment was executed with premixing 250 µL of 1 mol/L HCl and 30 µL of ACE crude extracts to inhibit the activity of ACE.
Evaluation of ACE inhibitory activity was assayed using the same method described in above section with some modifications. Briefly, 2 µL of ACE crude extracts were mixed with 80 µL of 10 µmol/L each selected peptide solution. The mixture was incubated at 37°C for 10 min, after which 200 µL of 5 mmol/L HHL solution substrate were added and the reaction mixture was incubated at 37°C for 20 min. Finally, 250 µL of 1 mol/L HCl were added to stop the reaction and 10 µL of solution were used to analyze HA release from HHL by reversed-phase HPLC with the same condition described above and detected at the wavelength of λ = 228 nm. Controls with equal volume of BBS as sample substitute were included for each measurement, and the blank experiment was executed with premixing 250 µL of 1 mol/L HCl and 2 µL of ACE crude extracts to inhibit the activity of ACE, firstly.
The evaluation of ACE inhibition was based on the measurement of the HA peak areas, and the degree of ACE inhibition (%) was calculated according to Eq.1: [drawing 1] (Eq.1) […]

ACE = details: literature value; cited from earlier work
Source text: In the past decades, researchers have focused on the natural nutraceutical resources and investigated the potential antihypertensive activity in vitro by ACE-inhibitory activity, [5]. Some natural phytochemicals from plants, including rutin, quercetin glycoside, epicatechin-tetramer and cyanidin-3-O-sambubioside have been extensively studied as a substitute for chemo-pharmaceuticals [6]–[8]. Also, some antihypertensive peptides have been identified from hydrolyzed or fermented milk and other dietary sources. Among them, the Isoleucine-Proline-Proline (IPP) and Valine-Proline- ...

[2] = test system: spontaneously hypertensive rats (SHR/Slac); test: Systolic blood pressure of SHR after single intragastric administration (tail-cuff); assay type: in vivo, rat; details: for dose-dependence of the lowering SBP effect: 0.75 versus […] BW, relative lowering SBP rate
Procedure: The spontaneously hypertensive, strain SHR/Slac male rats (Production Permit Number: SCXK (Shanghai) 2007-0005; Body weight, average ∼400 g; Age, 20 weeks old), were purchased from Shanghai SLAC Laboratory Animal Co. Ltd. (Shanghai, China). The SHR were housed in cages and maintained under specific pathogen-free conditions on a cycle of 12 h of light and 12 h of darkness at Center of Experimental Animal, School of Pharmacy, Shanghai Jiao Tong University (Use Permit Number: SYXK (Shanghai) 2007-0025). The temperature and humidity in the cages were controlled at 24±1°C and 60±5%, respectively. SHRs were acclimatized for 7 days prior to experimentation. The rats were fed a standard laboratory diet (SLACOM; Shanghai, China), and tap water was freely available. After the hexapeptide water-solution (dose, 1.5 mg/kg body weight) injection with intragastric administration in six SHR, the systolic blood pressure (SBP) of each rat was measured by the tail-cuff method with a programmable electrosphygmomanometer (model SoftronBP-98A; Softron Beijing Incorporated, Beijing, China) at 1 h interval. A heater lamp was on the tail to improve signal quality. To obtain an accurate SBP reading, rats were first habituated to the SBP measurement device. Definitive measurements began when rats remained unperturbed into the chamber throughout the inflation-deflation cycles. The SBP in each SHR with administration of distilled water (2 mL) was used as the control value. The data are expressed as means and standard errors (n = 6).
To evaluate whether the lowering SBP effect was the dose-dependence relative to the test peptides, the SHR were also treated with 0.75 mg/kg BW peptides water-solution as above program. And the relative lowering SBP effect was calculated as the following equation (Eq.2): [drawing 2] (Eq.2) where SBPinitial is the initial SBP values of SHR right before the peptide administration, SBPlowest is the lowest SBP value obtained within 5 h after the administration with the tested peptides.

SERCA 2a gene = test: Quantitative real time-PCR of SERCA 2a gene mRNA in SHR heart; assay type: in vivo, rat; details: 3 h after feeding the peptide, GAPDH reference, three biological replicates
Procedure: Quantitative real time-PCR (qRT-PCR) analysis was performed using SYBR Premix EX Taq (TaKaRa) on a Rotor-Gene R[…] detection system (Corbett Research) as described by Zhang et al. (2010) with the exception of the annealing temperature at 58 °C when using the primers […]) and […]), [26]. Gene GAPDH was used as reference gene with primer […]) and […]). Three biological replicates were used, and each with three technical repeats.

Row | Compound | ACE inhibition rate (%) (ACE from rabbit lungs) | dose-dependence of the lowering SBP effect [2] | transcriptional level of SERCA 2a gene (SERCA 2a gene) | other results
1 | YGLF [whey protein derived tetrapeptide] | – | – | – | reduction of SBP (SHR; SHR, subcutaneous, 0.1 mg/kg BW): 23±4 mmHg
2 | C[C@H](CS)C(=O)N1CCC[C@H]1C(=O)O [captopril] | – | – | – | decrease in SBP (SHR; male SHR, 50 mg/kg, 4–6 h after administration): about 53±4 mmHg; effect on postprandial blood glucose levels [1]: no significant effect
3 | Valine-Proline-Proline [VPP] | 37.62±6.68^b % | – | – | IC50 (ACE): 9 µM
4 | Valine-Proline-Proline-Isoleucine-Proline-Proline [VPPIPP] | 34.71±4.38^b % | dose-dependent effect | 3.98 times of the control | relative lowering SBP rate, comparison between peptides ([2]; 0.75 mg/kg BW, intragastric): did not show significantly different from IPPVPP and IPP
5 | KVLPVPQ [heptapeptide KVLPVPQ (β-casein 169–175aa)] | – | – | – | maximal decrease in SBP (SHR; SHR, 2 mg/kg BW): 31.5±5.6 mmHg
6 | Isoleucine-Proline-Proline [IPP] | 56.97±2.40^a % | dose-dependent effect | 3.80 times of the control | IC50 (ACE): 5 µM; decrease in SBP (SHR; SHR, 0.3 mg/kg BW): 21.7±4.1 mmHg
7 | Isoleucine-Proline-Proline-Valine- Proline-Proline [IPPVPP] | 13.17±0.25^c % | did not | 2.70 times of the control | –
